Measured values reported in ChEMBL document CHEMBL1697731, “Cheminformatics analysis of assertions mined from literature that describe drug-induced liver injury in different species” (Chem Res Toxicol, 2010).

Assays:
[1] = system: Hepatotoxicity; assay: Literature-mined compound from Fourches et al multi-species drug-induced liver injury (DILI) dataset, effect in humans; details: human
[2] = system: Hepatotoxicity; assay: Literature-mined compound from Fourches et al multi-species drug-induced liver injury (DILI) dataset, effect in rodents; details: rodentia
[3] = system: Hepatotoxicity; assay: Literature-mined compound from Fourches et al multi-species drug-induced liver injury (DILI) dataset, effect in non-rodents

SMILES	Hepatotoxicity [1]	Hepatotoxicity [2]	Hepatotoxicity [3]	Hepatotoxicity ([1]; Liver)	Hepatotoxicity ([2]; Liver)	Hepatotoxicity ([3]; Liver)
C[C@H]1C[C@H]2[C@@H]3CCC4=CC(=O)C=C[C@]4(C)[C@@]3(F)[C@@H](O)C[C@]2(C)[C@@]1(O)C(=O)CO [BETAMETHASONE]	no drug-induced liver injury reported	drug-induced liver injury reported	no drug-induced liver injury reported	–	–	–
CC(NCCc1ccc(O)cc1)C(O)c1ccc(O)cc1.Cl (stereo unspecified) [RITODRINE HYDROCHLORIDE]	no drug-induced liver injury reported	no drug-induced liver injury reported	drug-induced liver injury reported	–	–	–
O=C(/C=C/c1ccc(O)c(O)c1)O[C@@H]1C[C@@](OC(=O)/C=C/c2ccc(O)c(O)c2)(C(=O)O)C[C@@H](O)[C@@H]1O [CYNARIN]	no drug-induced liver injury reported	drug-induced liver injury reported	no drug-induced liver injury reported	–	–	–
CC(C)(C)NC(=O)[C@@H]1CN(Cc2cccnc2)CCN1C[C@@H](O)C[C@@H](Cc1ccccc1)C(=O)N[C@H]1c2ccccc2C[C@H]1O.O	drug-induced liver injury reported	drug-induced liver injury reported	no drug-induced liver injury reported	–	–	–
O=C1OC(c2ccc(O)cc2)(c2ccc(O)cc2)c2ccccc21 [PHENOLPHTHALEIN]	no drug-induced liver injury reported	drug-induced liver injury reported	no drug-induced liver injury reported	–	–	–
O=C(NCN1CCOCC1)c1cnccn1 [MORINAMIDE]	drug-induced liver injury reported	no drug-induced liver injury reported	no drug-induced liver injury reported	–	–	–
FC(F)OC(F)C(F)(F)F (stereo unspecified)	drug-induced liver injury reported	drug-induced liver injury reported	no drug-induced liver injury reported	–	–	–
CN1C(=O)[C@@H](NC(=O)c2cc3ccccc3[nH]2)N=C(c2ccccc2)c2ccccc21 [DEVAZEPIDE]	no drug-induced liver injury reported	drug-induced liver injury reported	no drug-induced liver injury reported	–	–	–
CCOC(=O)C1=C(COCCN)NC(C)=C(C(=O)OC)C1c1ccccc1Cl (stereo unspecified) [AMLODIPINE]	no drug-induced liver injury reported	drug-induced liver injury reported	no drug-induced liver injury reported	–	–	–
O=C(O)[C@H](CC(=O)N1C[C@H]2CCCC[C@H]2C1)Cc1ccccc1 [MITIGLINIDE]	no drug-induced liver injury reported	drug-induced liver injury reported	no drug-induced liver injury reported	–	–	–
CO[C@H]1/C=C/O[C@@]2(C)Oc3c(C)c(O)c4c(O)c(cc(O)c4c3C2=O)NC(=O)/C(C)=C\C=C\[C@H](C)[C@H](O)[C@@H](C)[C@@H](O)[C@@H](C)[C@H](OC(C)=O)[C@@H]1C [RIFAMYCIN]	drug-induced liver injury reported	drug-induced liver injury reported	no drug-induced liver injury reported	–	–	–
CCN[C@@H]1C[C@H](N)[C@@H](O[C@H]2OC(CN)=CC[C@H]2N)[C@H](O)[C@H]1O[C@H]1OC[C@](C)(O)[C@H](NC)[C@H]1O [NETILMICIN]	drug-induced liver injury reported	drug-induced liver injury reported	no drug-induced liver injury reported	–	–	–
COc1ccc(O)cc1 [MEQUINOL]	no drug-induced liver injury reported	drug-induced liver injury reported	no drug-induced liver injury reported	–	–	–
O=NN(CCCl)C(=O)NCCCl [CARMUSTINE]	drug-induced liver injury reported	drug-induced liver injury reported	no drug-induced liver injury reported	–	–	–
Cc1cnc(NC(=O)C2=C(O)c3ccccc3S(=O)(=O)N2C)s1 [MELOXICAM]	drug-induced liver injury reported	no drug-induced liver injury reported	no drug-induced liver injury reported	–	–	–
CSCC[C@H](N)C(=O)O [METHIONINE]	–	–	–	drug-induced liver injury reported	drug-induced liver injury reported	drug-induced liver injury reported
Oc1cc(O)c2c(c1)O[C@H](c1ccc(O)c(O)c1)[C@@H](O)C2 [CATECHIN]	drug-induced liver injury reported	drug-induced liver injury reported	drug-induced liver injury reported	–	–	–
CCOC(=O)CN[C@@H](C(=O)N1CC[C@H]1C(=O)NCc1ccc(/C(N)=N\O)cc1)C1CCCCC1 [XIMELAGATRAN]	drug-induced liver injury reported	no drug-induced liver injury reported	no drug-induced liver injury reported	–	–	–
CO[C@@]1(NC(=O)C(C(=O)O)c2ccc(O)cc2)C(=O)N2C(C(=O)O)=C(CSc3nnnn3C)CO[C@@H]21 (stereo partly specified) [MOXALACTAM]	drug-induced liver injury reported	no drug-induced liver injury reported	no drug-induced liver injury reported	–	–	–

SMILES	Hepatotoxicity [1]	Hepatotoxicity [2]	Hepatotoxicity [3]	Hepatotoxicity ([1]; Liver)	Hepatotoxicity ([2]; Liver)	Hepatotoxicity ([3]; Liver)
C[C@]12CC[C@H](O)CC1=CC[C@@H]1[C@@H]2CC[C@]2(C)C(=O)CC[C@@H]12 [PRASTERONE]	drug-induced liver injury reported	drug-induced liver injury reported	no drug-induced liver injury reported	–	–	–
CCCN(CCC)S(=O)(=O)c1ccc(C(=O)O)cc1 [PROBENECID]	drug-induced liver injury reported	drug-induced liver injury reported	no drug-induced liver injury reported	–	–	–
CCCC(=O)Nc1ncnc2c1ncn2[C@@H]1O[C@@H]2COP(=O)(O)O[C@H]2[C@H]1OC(=O)CCC [BUCLADESINE]	drug-induced liver injury reported	drug-induced liver injury reported	drug-induced liver injury reported	–	–	–
Cc1cccc(C)c1NC(=O)c1cc(S(N)(=O)=O)c(Cl)cc1O [XIPAMIDE]	no drug-induced liver injury reported	drug-induced liver injury reported	no drug-induced liver injury reported	–	–	–
CC(=O)OCC1=C(C(=O)O)N2C(=O)[C@@H](NC(=O)Cc3cccs3)[C@H]2SC1 [CEPHALOTHIN]	drug-induced liver injury reported	no drug-induced liver injury reported	no drug-induced liver injury reported	–	–	–
CC[C@H](CC[C@@H](C)[C@H]1CC[C@H]2[C@@H]3CC=C4C[C@@H](O)CC[C@]4(C)[C@H]3CC[C@]12C)C(C)C [BETA-SITOSTEROL]	drug-induced liver injury reported	drug-induced liver injury reported	no drug-induced liver injury reported	–	–	–
COc1ccccc1OCCNCC(O)COc1cccc2[nH]c3ccccc3c12 (stereo unspecified) [CARVEDILOL]	drug-induced liver injury reported	drug-induced liver injury reported	no drug-induced liver injury reported	–	–	–
O=C1CN(/N=C/c2ccc(-c3ccc([N+](=O)[O-])cc3)o2)C(=O)[N-]1.[Na+] [DANTROLENE SODIUM]	no drug-induced liver injury reported	drug-induced liver injury reported	no drug-induced liver injury reported	–	–	–
COc1ccc([C@@H]2Sc3ccccc3N(CCN(C)C)C(=O)[C@@H]2OC(C)=O)cc1 [DILTIAZEM]	drug-induced liver injury reported	drug-induced liver injury reported	drug-induced liver injury reported	–	–	–
C#C[C@]1(O)CC[C@H]2[C@@H]3CCc4cc(O)ccc4[C@H]3CC[C@@]21C [ETHINYL ESTRADIOL]	drug-induced liver injury reported	drug-induced liver injury reported	drug-induced liver injury reported	–	–	–
OC(Cn1cncn1)(Cn1cncn1)c1ccc(F)cc1F [FLUCONAZOLE]	–	–	–	drug-induced liver injury reported	drug-induced liver injury reported	no drug-induced liver injury reported
CCC(C(=O)O)C1(O)CCCCC1 (stereo unspecified) [CYCLOBUTYROL]	no drug-induced liver injury reported	drug-induced liver injury reported	no drug-induced liver injury reported	–	–	–
Nc1ccn(C[C@@H](CO)OCP(=O)(O)O)c(=O)n1.O.O [CIDOFOVIR]	drug-induced liver injury reported	no drug-induced liver injury reported	no drug-induced liver injury reported	–	–	–
Cc1ccc(C)c(OCCCC(C)(C)C(=O)O)c1 [GEMFIBROZIL]	drug-induced liver injury reported	drug-induced liver injury reported	no drug-induced liver injury reported	–	–	–
CC(C(=O)O)c1cccc(C(=O)c2ccccc2)c1 (stereo unspecified) [KETOPROFEN]	drug-induced liver injury reported	no drug-induced liver injury reported	no drug-induced liver injury reported	–	–	–
CCCCCOC(=O)Nc1nc(=O)n([C@@H]2O[C@H](C)[C@@H](O)[C@H]2O)cc1F [CAPECITABINE]	drug-induced liver injury reported	drug-induced liver injury reported	no drug-induced liver injury reported	–	–	–
Cc1ccc(-c2nc3ccc(C)cn3c2CC(=O)N(C)C)cc1 [ZOLPIDEM]	drug-induced liver injury reported	no drug-induced liver injury reported	no drug-induced liver injury reported	–	–	–
CN[C@H]1CC[C@@H](c2ccc(Cl)c(Cl)c2)c2ccccc21 [SERTRALINE]	–	–	–	drug-induced liver injury reported	drug-induced liver injury reported	no drug-induced liver injury reported
